This note sets out measurements from patent publication US20230110491A1, “LUCIFERASE-BASED METHODS FOR DETECTING BACTERIAL AND FUNGAL CELLS AND ASSESSING SUSCEPTIBILITY OF BACTERIAL CELLS TO ANTIBIOTICS” (Biosynth AG, priority 2020, published 2023).

By MIC is commonly meant the lowest concentration found to suppress growth.

Each structure is given as a SMILES string. Converted amounts (≈) assume the structure as drawn.

Assay [1] has as its system Salmonella enteritidis RKI 05/07992. As to the kind of experiment: Coupled enzyme assay using pro-luciferins on solid nutrient agar with luciferase and ATP. It is filed as cell-based. Conditions: solid nutrient agar with luciferase, pro-luciferin and 1 mM ATP; approx. 10 CFU/well; 37° C. On the procedure: (§1) Nutrient agar pH 7.4 (5 g/I peptone, 5 g/I NaCl, 2 g/I yeast extract, 1 g/I meat extract, 15 g/I agar) was autoclaved and cooled to 50° C. […] Next, 40 μM D-luciferin (Biosynth AG) was added from a concentrated stock solution.
(§2) Actively growing cultures (Nutrient Broth, 37° C., OD600 0.08 to 0.33) of Staphylococcus aureus ATCC 29213 and Salmonella enteritidis RKI 05/07992 were then diluted to […] in sterile PBS and inoculated to microplate wells with agar (1 μl per well=approx. 10 CFU/well). 1 μl sterile phosphate buffered saline (PBS) was added to sterile control wells. The surrounding wells were filled with sterile water and the plate was incubated at 37° C. in a luminescence microplate reader. The luminescence was measured every 10 min (kinetic mode).
(§3) (Biosynth AG) and 1 mM ATP.

In assay [2] the test system is Staphylococcus aureus ATCC 29213. The description is as above. Conditions: solid nutrient agar with luciferase, pro-luciferin and 1 mM ATP; approx. 10 CFU/well; 37° C. It is filed as cell-based. On the procedure: as §1, §2, §3
Assay [3] relates to Ampicillin resistant (AMP^R) E. coli RKI 66/09 (AmpC). The assay is described as follows: Optical density (600 nm) after 15 h incubation with ampicillin. The assay is classed as cell-based, Escherichia coli. As to conditions: all tested ampicillin concentrations. The procedure:
(§4) Ampicillin was added from a dilution series of a filter-sterilized, concentrated stock solution prepared in sterile ultrapure water (5 μl per well). Sterile water was added to control wells without antibiotic. Wells were inoculated with 5 μl of cell suspensions (OD 0.1, prepared in sterile PBS from agar plate pre-cultures) of either Ampicillin resistant (AMP^R) E. coli RKI 66/09 (AmpC) or Ampicillin sensitive (AMP^S) E. coli ATCC 25922. Initial cell concentration in wells was approximately 2.5×10^6 CFU/ml. The microplate was incubated at 37° C. in a luminescence microplate reader and relative luminescence units (RLU) were measured every 2 min for 8 h. For comparison, optical density (600 nm) was measured for all wells after 15 h incubation at 37° C.

Assay [4] relates to Ampicillin sensitive (AMP^S) E. coli ATCC 25922. The assay is described as above. The assay is classed as cell-based, Escherichia coli. The procedure: as §4
In assay [5] the test system is Ampicillin resistant (AMP^R) E. coli RKI 66/09 (AmpC). The assay is described as follows: ATP assay for antibiotic susceptibility testing (luminescence, ATP release). It is filed as cell-based, Escherichia coli. The procedure:
(§5) Nutrient broth pH 7.4 (5 g/I peptone, 5 g/I NaCl, 2 g/I yeast extract, 1 g/I meat extract) was autoclaved and cooled to room temperature. […] Next, 0.4 mM D-luciferin (Biosynth AG) and 1 mM MgCl2 was added from concentrated stock solutions. The prepared broth was sterilized by filtration (0.2 μm), incubated for 2.5 h at 30° C. in order to burn-off background and then added to a white microplate (0.198 ml per well).
as §4

For assay [6], the system named is Ampicillin sensitive (AMP^S) E. coli ATCC 25922. The assay is described as above. It is filed as cell-based, Escherichia coli. The procedure: as §5, §4

With `CCCCCCCC(=O)Oc1ccc(COc2ccc3nc(C4=N[C@@H](C(=O)O)CS4)sc3c2)cc1` [D-luciferin-spacer-caprylate], in assay [1], the “incubation time after which luminescence begins to strongly increase” value is given as “about 10 hours”. Besides, the “incubation time after which luminescence increases” value in assay [2] was “about 17 hours”.
As for `CC1(C)S[C@@H]2[C@H](NC(=O)[C@H](N)c3ccccc3)C(=O)N2[C@H]1C(=O)O` [ampicillin], the “growth inhibition (optical density after 15 h)” value in assay [3] is “no growth inhibition”. In addition, in assay [4] (10-100 μg/ml ampicillin), the “cell growth (optical density after 15 h)” value was “lack of cell growth”. Also, the MIC in assay [4] (Escherichia coli, ATCC25922, OD 600 nm, 15 h, 37° C., read-out: MIC from optical density after 15 h) was roughly 6 µg/mL (≈ 17.2 µM). Also, the “time course of ATP release” value in assay [5] (1.56-100 μg/ml ampicillin) was “independent of ampicillin concentration”. The “dependency of onset time on ampicillin concentration” value in assay [5] (onset time = first time point with RLU above 1200, all tested concentrations) is “essentially the same onset time”; in assay [6] (onset time = first time point with RLU above 1200) it was “inversely correlates with ampicillin concentration”. The “ATP release at non-inhibitory concentration” value in assay [6] (1.56 μg/ml ampicillin) is given as “very high amounts of ATP are released”. Besides, the “time after which ATP increase can be detected” value in assay [6] (at inhibitory antibiotic concentrations, cell concentrations as low as 2×10^6 CFU/ml) is recorded as 30 min. In addition, the “ATP release compared to the control without antibiotic” value in assay [6] (at the MIC or above (6.25, 25, 100 μg/ml)) was “occurs earlier and is increased”.
